Patent US20130136691A1, “GASTRIN […] PEPTIDE COMPOUNDS” (priority 2008, published 2013)

How the values were obtained:
[1] = system: GRP receptor binding in T47D human breast cancer cells; experiment: Effect of drug treatment on GRP receptor binding (177Lu-AMBA) and proliferation in T-47D cells; format: cell-based; conditions: for GRP receptor specific signal per cell (177Lu-AMBA binding) versus untreated controls, in words: drug 0.1-1.0 μM (β2-estradiol 1 nM); for change in 177Lu-AMBA binding (GRP receptor specific signal per cell), T47D: Table 25, range 0.001-0.1 μM, vs untreated controls; for increase in 177Lu-AMBA binding (GRP receptor specific signal per cell) / decrease in 177Lu-AMBA binding (GRP receptor specific signal per cell): relative to untreated control; for increase in 177Lu-AMBA binding (GRP receptor specific signal per cell): drug 0.1-1.0 μM (gefitinib 0.1-10 μM); for decrease in 177Lu-AMBA binding (GRP receptor specific signal per cell): drug 0.1-1.0 μM (4-OH Tamoxifen 0.001-0.1 μM)
Excerpt: T-47D breast cancer cells (human metastatic mammary gland ductal adenocarcinoma isolated from pleural effusion, ER+, PR+) were obtained from the American Type Culture Collection.

[2] = system: GRP receptor binding in PC-3 prostate cancer cells; experiment: Effect of drug treatment on GRP receptor binding (177Lu-AMBA) and proliferation in PC-3 cells; conditions: for decrease in 177Lu-AMBA binding (GRP receptor specific signal per cell): drug 0.1-1.0 μM (gefitinib 0.1-10 μM); for change in 177Lu-AMBA binding (GRP receptor specific signal per cell), PC-3: Table 25, range 0.001-0.1 μM, vs untreated controls; for GRP receptor specific signal per cell (177Lu-AMBA binding) versus untreated controls, in words: drug 0.1-1.0 μM (4-OH Tamoxifen 0.001-0.1 μM)
Protocol: (§1) RPMI 1640 supplemented with 20 mM HEPES, 0.1% BSA (w/v), 0.5 mM PMSF (AEBSF), bacitracin (50 mg/500 ml), pH 7.4.
(§2) Treatment: BT-474 cells were plated on Day 0 (see above); approximately 24-48 h after plating, treatment Days 1 and 2 (DT1, DT2), the medium was removed and replaced with fresh growth medium (control), or growth medium with the addition of lapatinib (0.1-1.0 μM). […] Incubations were stopped by the addition of 200 μL of ice-cold binding buffer. Plates were washed three more times with binding buffer, 140 μL of scintillation fluid was added to each well, the plates were sealed and analyzed on a Microp plate reader (Microbeta Trilux, Perkin-Elmer).
(§3) Treatment: BT-474 cells were plated on Day 0 and treated on Days 1 and 2 (DT1, DT2).

[3] = system: GRP receptor binding in BT-474 human breast cancer cells; experiment: Effect of drug treatment on GRP receptor binding (177Lu-AMBA) and proliferation in BT-474 cells; conditions: for decrease in 177Lu-AMBA binding (GRP receptor specific signal per cell): relative to untreated control, drug 0.1-1.0 μM (4-OH Tamoxifen 0.001-0.1 μM); for change in 177Lu-AMBA binding (GRP receptor specific signal per cell), BT-474: Table 25, range 0.001-0.1 μM, vs untreated controls; for GRP receptor specific signal per cell (177Lu-AMBA binding) versus untreated controls, in words: drug 0.1-1.0 μM (gefitinib 0.1-10 μM)
Protocol: Cells for binding experiments were plated on Day 0 at 5.6×10^4 cells/cm^2 in 96-well white/clear bottom microtiter plates (Falcon Optilux-I), or 96 well black/clear collagen I cellware plates (Beckton Dickinson Biocoat).
as §1, §2, §3

PC3 cells = experiment: Internalization and efflux assay in PC3 cells (125I-BBN, 177Lu complexes); format: cell-based, human; conditions: 37° C., 125I-BBN and Lu-177 complexes; for Efflux (2 h): after 40 min loading
Protocol: These studies were conducted in a 96-well plate. […] Incubations were stopped by the addition of 200 μl of ice-cold binding buffer. Plates were washed twice with binding buffer. To remove surface-bound radioligand, the cells were incubated with 0.2M acetic acid (in saline), pH 2.8 for 2 min. Plates were centrifuged and the acid wash media were collected to determine the amount of radioactivity which was not internalized. The cells were collected to determine the amount of internalized ^125I-BBN, and all samples were analyzed in the gamma counter. Data for the internalization assay was normalized by comparing counts obtained at the various time points with the counts obtained at the final time point (T=40 min).
For the efflux studies, after loading the PC3 cells with ^125I-BBN or radiolabeled compounds of the invention for 40 min at 37° C., the unbound material was filtered, and the % of internalization was determined as above. The cells were then resuspended in binding buffer at 37° C. for up to 3 h.

NMB-R = biological target: T1, NMB-R (Rattus norvegicus, UniProt P24053); experiment: Competition with 125I-NMB for NMB-R in C6 cells; format: binding, rodent; conditions: cut off 10× the IC50 of [Tyr4]-BBN; for receptor subtype preference (GRP-R versus NMB-R): from IC50 with 125I-NMB on C6 cells and 125I-BBN on PC3 cells; for GRP-R and NMB-R (binds both with similar affinity): class from IC50 with 125I-NMB on C6 cells
T1 construct: C6, an NMB-R expressing rodent glioblastoma cell line; host or cells: C6 glioma cells (intact, plated)
T1 sequence (P24053 1-390): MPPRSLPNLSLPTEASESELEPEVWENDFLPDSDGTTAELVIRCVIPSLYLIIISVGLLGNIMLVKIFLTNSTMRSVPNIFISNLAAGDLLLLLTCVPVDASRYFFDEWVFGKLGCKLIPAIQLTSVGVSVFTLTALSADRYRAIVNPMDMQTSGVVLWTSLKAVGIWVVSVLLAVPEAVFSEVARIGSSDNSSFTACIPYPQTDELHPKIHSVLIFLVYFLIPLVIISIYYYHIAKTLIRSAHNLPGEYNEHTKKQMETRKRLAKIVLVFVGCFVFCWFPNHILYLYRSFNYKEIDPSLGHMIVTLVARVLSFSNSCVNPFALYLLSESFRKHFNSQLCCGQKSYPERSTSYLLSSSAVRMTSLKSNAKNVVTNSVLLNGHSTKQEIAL
Protocol: Two cell lines, C6, an NMB-R expressing rodent glioblastoma cell line and PC3, a GRP-R expressing human prostate cancer cell line, were used in this assay. The affinity of various unlabeled compounds for each receptor subtype (NMB-R and GRP-R) was determined indirectly by measuring its ability to compete with the binding of ^125I-NMB or ^125I-BBN to its corresponding receptors in C6 and PC3 cells.
Cells for the assays were plated at a concentration of 9.6×10^4/well in 48 well poly-lysine coated plates (Beckton Dickinson Biocoat). PC3 were obtained from ATCC(CRL-1435) and cultured in RPMI 1640 (ATCC) supplemented with 2 mM L-glutamine, 1.5 g/L Sodium bicarbonate, 10 mM HEPES and 10% FBS. […] PC3 cells for the assays were plated at a concentration of 2.0×10^4 cells/well in 96-well white/clear bottom plates (Falcon Optilux-I). Plates were used for the assays on day 2 of the post-plating.
RPMI 1640 (ATCC) containing 25 mM HEPES, 0.2% BSA fraction V, 1.0 mM AEBSF (CAS #3087-99-7) and 0.1% Bacitracin (CAS #1405-87-4), pH 7.4. Custom made ^125I-[Tyr°]NMB, >2.0 Ci/mole (Amersham Life Science) [^125I-NMB] and commercially available ^125I-[Tyr^4]BBN, >2.0 Ci/mole (Perkin Elmer Life Science) [^125I-BBN] were used as radioligands.
Using a 48-well plate assay system (for C6 study) competition experiments were performed using ^125I-NMB. […] Selection of compounds for the assay was based on linker subtype.
The binding parameters obtained from the studies were analyzed using a one-site competition non-linear regression analysis with GraphPad Prism. The relative affinity of various compounds for NMB-R in C6 cells were compared with those obtained using commercially available [Tyr^4]-BBN and [Tyro]-NMB. To distinguish the GRP-R preferring compounds from NMB-R plus GRP-R preferring compounds, IC50 values obtained for each compound were compared with those obtained from [Tyr^4-BBN with ^125I-NMB on C6 cells.

[4] = system: PC3 tumor-bearing nude mouse model; experiment: Radiotherapy efficacy studies (short and long term survival); format: in vivo; conditions: 177Lu labeled; for survival, Short Term Efficacy Study: 30 mCi/kg i.v. or s.c., versus untreated control and DO3A-monoamide-Aoc-QWAVGHLM-NH2 control; for survival, Long Term Efficacy Study: 30 mCi/kg, up to 120 days, n=46, p<0.0001 versus controls
Protocol: Radiotherapy studies were performed using the PC3 tumor-bearing nude mouse model. […] (n=12 for each treatment group for up to days, and n=36 for the pooled untreated control group for up to 31 days). […] The subjects were housed in a barrier environment for the duration of the study. Body weight and tumor size (by caliper measurement) were collected on each subject 3 times per week for the duration of the study. Criteria for early termination included: death; loss of total body weight (TBW) equal to or greater than 20%; tumor size equal to or greater than 2 cm^3.

[5] = PC-3, relative to untreated control

## CNC(=O)c1cc(Oc2ccc(NC(=O)Nc3ccc(Cl)c(C(F)(F)F)c3)cc2)ccn1 [sorafenib]
[1]; T-47D
  GRP receptor specific signal per cell (177Lu-AMBA binding) versus untreated controls, in words: no change
[1]; Table 24, drug 0.1-1.0 μM (gefitinib 0.1-10, bortezomib 0.001-0.1), vs untreated control
  change in 177Lu-AMBA uptake on a viable cell basis, T47D: NC (NC: Little (<10%) or no change in Lu-AMBA uptake)
[2]; [5]
  decrease in 177Lu-AMBA binding (GRP receptor specific signal per cell): 10-20%
[3]; BT-474
  decrease in 177Lu-AMBA binding (GRP receptor specific signal per cell): 10-25%

## DO3A-monoamide-8-amino-octanoic acid-BBN (7-14)
PC3 cells
  Internalisation (40 minutes): 89%
  Efflux (2 h): 28%

## N-[4-[[[[4,7,10-Tris(carboxymethyl)-1,4,7,10-tetraazacyclododec-1-yl]acetyl]glycyl]amino]-3-methoxybenzoyl]-L-glutaminyl-L-tryptophyl-1-alanyl-L-valyl-glycyl-L-histidyl-L-leucyl-L-methioninamide [Compound L240]
NMB-R
  receptor subtype preference (GRP-R versus NMB-R): selective affinity to GRP-R

## CSCC[C@H](NC(=O)[C@H](CC(C)C)NC(=O)[C@H](Cc1c[nH]cn1)NC(=O)CNC(=O)[C@@H](NC(=O)[C@H](C)NC(=O)[C@H](Cc1c[nH]c2ccccc12)NC(=O)[C@H](CCC(N)=O)NC(=O)CC[C@@H](C)[C@H]1CC[C@H]2[C@@H]3[C@H](O)C[C@@H]4C[C@@H](NC(=O)CNC(=O)CN5CCN(CC(=O)O)CCN(CC(=O)O)CCN(CC(=O)O)CC5)CC[C@]4(C)[C@H]3C[C@H](O)[C@]12C)C(C)C)C(N)=O [Compound L64, N-[(3β,5β,7α,12α)-3-[[[[[4,7,10-Tris(carboxymethyl)-1,4,7,10-tetraazacyclododec-1-yl]acetyl]amino]acetyl]amino]-7,12-dihydroxy-24-oxocholan-24-yl]-L-glutaminyl-L-tryptophyl-L-alanyl-L-valyl-glycyl-L-histidyl-L-leucyl-L-methioninamide]
PC3 cells
  Internalisation (40 minutes): 69%
  Efflux (2 h): 20%
[4]
  survival, Short Term Efficacy Study: increased survival
  survival, Long Term Efficacy Study: significantly increased survival
NMB-R
  GRP-R and NMB-R (binds both with similar affinity): yes
  receptor subtype preference (GRP-R versus NMB-R): dual affinity for both GRP-R and NMB-R

## N-[4-[[[[[4,7,10-Tris(carboxymethyl)-1,4,7,10-tetraazacyclododec-1-yl]acetyl]amino]acetyl]amino]benzoyl]-L-glutaminyl-L-tryptophyl-L-alanyl-L-valyl-glycyl-L-histidyl-L-leucyl-L-methioninamide [Compound L70]
PC3 cells
  Internalisation (40 minutes): 70%
  Efflux (2 h): 12%
[4]
  survival, Short Term Efficacy Study: increased survival
  survival, Long Term Efficacy Study: significantly increased survival

## CSCC[C@H](NC(=O)[C@H](CC(C)C)NC(=O)[C@H](Cc1c[nH]cn1)NC(=O)CNC(=O)[C@@H](NC(=O)[C@H](C)NC(=O)[C@H](Cc1c[nH]c2ccccc12)NC(=O)[C@H](CCC(N)=O)NC(=O)CC[C@@H](C)[C@H]1CC[C@H]2[C@@H]3CC[C@@H]4C[C@@H](NC(=O)CNC(=O)CN5CCN(CC(=O)O)CCN(CC(=O)O)CCN(CC(=O)O)CC5)CC[C@]4(C)[C@H]3C[C@H](O)[C@]12C)C(C)C)C(N)=O [Compound L63, N-[(3β,5β,12α)-3-[[[[[4,7,10-Tris(carboxymethyl)-1,4,7,10-tetraazacyclododec-1-yl]acetyl]amino]acetyl]amino]-12-hydroxy-24-oxocholan-24-yl]-L-glutaminyl-L-tryptophyl-L-alanyl-L-valyl-glycyl-L-histidyl-L-leucyl-L-methioninamide]
PC3 cells
  Internalisation (40 minutes): 64%
  Efflux (2 h): 0%
[4]
  survival, Short Term Efficacy Study: increased survival
NMB-R
  GRP-R and NMB-R (binds both with similar affinity): yes
  receptor subtype preference (GRP-R versus NMB-R): dual affinity for both GRP-R and NMB-R

## CC/C(=C(\c1ccc(O)cc1)c1ccc(OCCN(C)C)cc1)c1ccccc1 [Compounds 4-OH-Tamoxifen]
[1]
  change in 177Lu-AMBA binding (GRP receptor specific signal per cell), T47D: −35%
[2]
  change in 177Lu-AMBA binding (GRP receptor specific signal per cell), PC-3: 0%
[3]
  change in 177Lu-AMBA binding (GRP receptor specific signal per cell), BT-474: −73%

## CS(=O)(=O)CCNCc1ccc(-c2ccc3ncnc(Nc4ccc(OCc5cccc(F)c5)c(Cl)c4)c3c2)o1 [lapatinib]
[1]; T-47D, at the highest concentration
  decrease in cell proliferation: ≤ 35%
[1]; T-47D
  increase in 177Lu-AMBA binding (GRP receptor specific signal per cell): up to 50%
[2]; PC-3, 0.1-1.0 μM
  proliferation versus untreated controls, in words: no change
[2]; PC-3
  GRP receptor specific signal per cell (177Lu-AMBA binding) versus untreated controls, in words: no change
[3]; BT-474, at the highest concentration
  decrease in cell proliferation: ≤ 65%

## CC(C)C[C@H](NC(=O)[C@H](Cc1ccccc1)NC(=O)c1cnccn1)B(O)O [bortezomib]
[1]; T-47D
  decrease in 177Lu-AMBA binding (GRP receptor specific signal per cell): up to 50%
[2]; [5]
  decrease in 177Lu-AMBA binding (GRP receptor specific signal per cell): up to 60%
[3]; BT-474
  decrease in 177Lu-AMBA binding (GRP receptor specific signal per cell): up to 50%

## C#Cc1cccc(Nc2ncnc3cc(OCCOC)c(OCCOC)cc23)c1 [erlotinib]
[1]; T-47D
  increase in 177Lu-AMBA binding (GRP receptor specific signal per cell): 5-20%
[2]; [5]
  decrease in 177Lu-AMBA binding (GRP receptor specific signal per cell): 5-20%
[3]; BT-474
  GRP receptor specific signal per cell (177Lu-AMBA binding) versus untreated controls, in words: no change

## COc1cc2ncnc(Nc3ccc(F)c(Cl)c3)c2cc1OCCCN1CCOCC1 [gefitinib]
[1]; T-47D
  increase in 177Lu-AMBA binding (GRP receptor specific signal per cell): up to 20%
[2]; [5]
  decrease in 177Lu-AMBA binding (GRP receptor specific signal per cell): 20-40%
[3]; BT-474
  GRP receptor specific signal per cell (177Lu-AMBA binding) versus untreated controls, in words: no change

## CCN(CC)CCNC(=O)c1c(C)[nH]c(/C=C2\C(=O)Nc3ccc(F)cc32)c1C [sunitinib]
[1]; T-47D
  increase in 177Lu-AMBA binding (GRP receptor specific signal per cell): up to 13%
[2]; PC-3, relative to untreated control, drug 0.1-1.0 μM
  increase in 177Lu-AMBA binding (GRP receptor specific signal per cell): up to 10%
[3]; BT-474
  decrease in 177Lu-AMBA binding (GRP receptor specific signal per cell): up to 8%

## Cc1ccc(NC(=O)c2ccc(CN3CCN(C)CC3)cc2)cc1Nc1nccc(-c2cccnc2)n1 [imatinib]
[1]; T-47D
  increase in 177Lu-AMBA binding (GRP receptor specific signal per cell): up to 15%
[2]; [5]
  decrease in 177Lu-AMBA binding (GRP receptor specific signal per cell): 15-25%
[3]; BT-474
  GRP receptor specific signal per cell (177Lu-AMBA binding) versus untreated controls, in words: no change

## C[C@]12CC[C@@H]3c4ccc(O)cc4CC[C@H]3[C@@H]1CC[C@@H]2O [β2-estradiol]
[1]; T-47D
  GRP receptor specific signal per cell (177Lu-AMBA binding) versus untreated controls, in words: did not change
[1]
  change in 177Lu-AMBA binding (GRP receptor specific signal per cell), T47D: 0%
[2]; PC-3
  GRP receptor specific signal per cell (177Lu-AMBA binding) versus untreated controls, in words: no change
[2]
  change in 177Lu-AMBA binding (GRP receptor specific signal per cell), PC-3: 0%
[3]
  change in 177Lu-AMBA binding (GRP receptor specific signal per cell), BT-474: 47%

## CC(C)(C#N)c1cc(Cn2cncn2)cc(C(C)(C)C#N)c1 [anastrozole]
[1]; T-47D
  decrease in 177Lu-AMBA binding (GRP receptor specific signal per cell): up to 10%
[2]; [5]
  decrease in 177Lu-AMBA binding (GRP receptor specific signal per cell): up to 10%
[3]; BT-474
  GRP receptor specific signal per cell (177Lu-AMBA binding) versus untreated controls, in words: no change
